Measured values reported in PubChem BioAssay AID1259407 (Chemical Carcinogenesis Research Information System (CCRIS), 2018).
Activity calls are given as the source filed them. No rule for the calls is given here.

Test system: CCRIS mutagenicity, Ames/micronucleus/aberration tests
Test: CCRIS mutagenicity studies
[1] = Test System: AMES SALMONELLA TYPHIMURIUM, Strain/Indicator: TA100, Metabolic Activation: NONE, Method: PREINCUBATION
[2] = Test System: MOUSE LYMPHOMA, Strain/Indicator: L5178Y (TK+/TK-), Metabolic Activation: NONE, Method: SUSPENSION/PLATE

CCCCCCCCCCCC(=O)[O][Sn]([CH2]CCC)([CH2]CCC)[O]C(=O)CCCCCCCCCCC
mutagenic call (Test System: AMES SALMONELLA TYPHIMURIUM, Strain/Indicator: TA97, Metabolic Activation: HAMSTER, LIVER, S-9, AROCLOR 1254 (10%), Method: PREINCUBATION): inactive; negative | mutagenic call (Test System: AMES SALMONELLA TYPHIMURIUM, Strain/Indicator: TA97, Metabolic Activation: HAMSTER, LIVER, S-9, AROCLOR 1254 (30%), Method: PREINCUBATION): inactive; negative | mutagenic call (Test System: AMES SALMONELLA TYPHIMURIUM, Strain/Indicator: TA97, Metabolic Activation: NONE, Method: PREINCUBATION): inactive; negative | mutagenic call (Test System: AMES SALMONELLA TYPHIMURIUM, Strain/Indicator: TA97, Metabolic Activation: RAT, LIVER, S-9, AROCLOR 1254 (10%), Method: PREINCUBATION): inactive; negative | mutagenic call (Test System: AMES SALMONELLA TYPHIMURIUM, Strain/Indicator: TA97, Metabolic Activation: RAT, LIVER, S-9, AROCLOR 1254 (30%), Method: PREINCUBATION): inactive; negative | mutagenic call (Test System: AMES SALMONELLA TYPHIMURIUM, Strain/Indicator: TA98, Metabolic Activation: HAMSTER, LIVER, S-9, AROCLOR 1254 (10%), Method: PREINCUBATION): inactive; negative | mutagenic call (Test System: AMES SALMONELLA TYPHIMURIUM, Strain/Indicator: TA98, Metabolic Activation: HAMSTER, LIVER, S-9, AROCLOR 1254 (30%), Method: PREINCUBATION): inactive; negative | mutagenic call (Test System: AMES SALMONELLA TYPHIMURIUM, Strain/Indicator: TA98, Metabolic Activation: NONE, Method: PREINCUBATION): inactive; negative | mutagenic call (Test System: AMES SALMONELLA TYPHIMURIUM, Strain/Indicator: TA98, Metabolic Activation: RAT, LIVER, S-9, AROCLOR 1254 (10%), Method: PREINCUBATION): inactive; negative | mutagenic call (Test System: AMES SALMONELLA TYPHIMURIUM, Strain/Indicator: TA98, Metabolic Activation: RAT, LIVER, S-9, AROCLOR 1254 (30%), Method: PREINCUBATION): inactive; negative | mutagenic call (Test System: AMES SALMONELLA TYPHIMURIUM, Strain/Indicator: TA100, Metabolic Activation: HAMSTER, LIVER, S-9, AROCLOR 1254 (10%), Method: PREINCUBATION): inactive; negative | mutagenic call (Test System: AMES SALMONELLA TYPHIMURIUM, Strain/Indicator: TA100, Metabolic Activation: HAMSTER, LIVER, S-9, AROCLOR 1254 (30%), Method: PREINCUBATION): inactive; negative | mutagenic call [1]: inactive; negative | mutagenic call (Test System: AMES SALMONELLA TYPHIMURIUM, Strain/Indicator: TA100, Metabolic Activation: RAT, LIVER, S-9, AROCLOR 1254 (10%), Method: PREINCUBATION): inactive; negative | mutagenic call (Test System: AMES SALMONELLA TYPHIMURIUM, Strain/Indicator: TA100, Metabolic Activation: RAT, LIVER, S-9, AROCLOR 1254 (30%), Method: PREINCUBATION): inactive; negative | mutagenic call (Test System: AMES SALMONELLA TYPHIMURIUM, Strain/Indicator: TA1535, Metabolic Activation: HAMSTER, LIVER, S-9, AROCLOR 1254 (10%), Method: PREINCUBATION): inactive; negative | mutagenic call (Test System: AMES SALMONELLA TYPHIMURIUM, Strain/Indicator: TA1535, Metabolic Activation: HAMSTER, LIVER, S-9, AROCLOR 1254 (30%), Method: PREINCUBATION): inactive; negative | mutagenic call (Test System: AMES SALMONELLA TYPHIMURIUM, Strain/Indicator: TA1535, Metabolic Activation: NONE, Method: PREINCUBATION): inactive; negative | mutagenic call (Test System: AMES SALMONELLA TYPHIMURIUM, Strain/Indicator: TA1535, Metabolic Activation: RAT, LIVER, S-9, AROCLOR 1254 (10%), Method: PREINCUBATION): inactive; negative | mutagenic call (Test System: AMES SALMONELLA TYPHIMURIUM, Strain/Indicator: TA1535, Metabolic Activation: RAT, LIVER, S-9, AROCLOR 1254 (30%), Method: PREINCUBATION): inactive; negative

Nc1nc(NO)c2[nH]cnc2n1
mutagenic call (Test System: AMES SALMONELLA TYPHIMURIUM, Strain/Indicator: HISG46, Metabolic Activation: NONE, Method: STANDARD PLATE): active; positive | mutagenic call (Test System: AMES SALMONELLA TYPHIMURIUM, Strain/Indicator: TA98, Metabolic Activation: NONE, Method: STANDARD PLATE): inactive; negative | mutagenic call (Test System: AMES SALMONELLA TYPHIMURIUM, Strain/Indicator: TA100(1,8-DNP6), Metabolic Activation: NONE, Method: PREINCUBATION): active; positive | mutagenic call (Test System: AMES SALMONELLA TYPHIMURIUM, Strain/Indicator: TA100(NR), Metabolic Activation: NONE, Method: PREINCUBATION): active; positive | mutagenic call [1]: active; positive | mutagenic call (Test System: AMES SALMONELLA TYPHIMURIUM, Strain/Indicator: TA100, Metabolic Activation: NONE, Method: STANDARD PLATE): active; positive | mutagenic call (Test System: AMES SALMONELLA TYPHIMURIUM, Strain/Indicator: TA100, Metabolic Activation: RAT, LIVER, S-9, KANECHLOR 500, Method: PREINCUBATION): active; positive | mutagenic call (Test System: AMES SALMONELLA TYPHIMURIUM, Strain/Indicator: TA1950, Metabolic Activation: NONE, Method: STANDARD PLATE): active; positive | mutagenic call (Test System: CHINESE HAMSTER OVARY, Strain/Indicator: CHO-K1-BH4 (HGPRT), Metabolic Activation: NONE, Method: SUSPENSION): active; positive | mutagenic call (Test System: E. COLI, Strain/Indicator: CM871, Metabolic Activation: NONE, Method: STANDARD PLATE): active; positive | mutagenic call (Test System: E. COLI, Strain/Indicator: WP2, Metabolic Activation: NONE, Method: STANDARD PLATE): active; positive | mutagenic call (Test System: E. COLI, Strain/Indicator: WP2S, Metabolic Activation: NONE, Method: STANDARD PLATE): active; positive | mutagenic call (Test System: E. COLI, Strain/Indicator: WP2 UVRA, Metabolic Activation: NONE, Method: STANDARD PLATE): active; positive | mutagenic call (Test System: MOUSE LYMPHOMA, Strain/Indicator: L5178Y (TK+/TK-)/6-THIOGUANINE, Metabolic Activation: NONE, Method: SUSPENSION): active; positive | mutagenic call (Test System: MOUSE LYMPHOMA, Strain/Indicator: L5178Y (TK+/TK-)/6-THIOGUANINE, Metabolic Activation: NONE, Method: SUSPENSION IN TRAYS): active; positive | mutagenic call (Test System: MOUSE LYMPHOMA, Strain/Indicator: L5178Y (TK+/TK-)/OUABAIN, Metabolic Activation: NONE, Method: SUSPENSION): active; positive | mutagenic call (Test System: MOUSE LYMPHOMA, Strain/Indicator: L5178Y (TK+/TK-)/OUABAIN, Metabolic Activation: NONE, Method: SUSPENSION IN TRAYS): active; positive | mutagenic call (Test System: MOUSE LYMPHOMA, Strain/Indicator: L5178Y (TK+/TK-)/TRIFLUOROTHYMIDINE, Metabolic Activation: NONE, Method: SUSPENSION): active; positive | mutagenic call (Test System: MOUSE LYMPHOMA, Strain/Indicator: L5178Y (TK+/TK-)/TRIFLUOROTHYMIDINE, Metabolic Activation: NONE, Method: SUSPENSION IN TRAYS): active; positive | mutagenic call [2]: active; positive

C[C@@H]1O[C@@H](O[C@H]2C[C@@H](O)[C@]3(CO)[C@H]4[C@H](O)C[C@]5(C)[C@@H](C6=CC(=O)OC6)CC[C@]5(O)[C@@H]4CC[C@]3(O)C2)[C@H](O)[C@H](O)[C@H]1O
mutagenic call [2]: active; positive
